Measurements reported in patent US10125100B2, “Kinase inhibitors” (Respivert Limited, priority 2014, dated 2018).

What was measured:
mitosis in PBMCs = assay: (g) Cell mitosis assay; type: cell-based; conditions: Homo sapiens, PBMC, 5 μg/mL
Outline: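 Healthy-donor PBMCs stimulated with 2% PHA for 48 hr, then exposed to test compounds at varying concentrations for 20 hr; demecolcine (0.1 μg/mL) added 2 hr before collection for metaphase arrest. Cells fixed/permeabilized, stained with anti-phospho-histone 3 and propidium iodide; mitotic cells counted by flow cytometry gating on lymphocytes.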

[1] = system: Escherichia coli, WP2 uvrA; assay: Bacterial reverse mutation screen; conditions: for mutagenic effects (revertant numbers): plate incorporation, presence and absence of S-9 mix
[2] = system: Salmonella typhimurium, strains TA1535, TA1537, TA98 and TA100; assay: Bacterial reverse mutation screen; conditions: for toxicity of the test item to the bacteria (mean colony count): at the highest doses (500-5000 μg/plate) in some strains; for mutagenic effects (revertant numbers): plate incorporation, presence and absence of S-9 mix
[3] = system: eyes of albino New Zealand White rabbits
B-Raf = B-Raf (Homo sapiens (Human), UniProt P15056); assay: KINOMEscan binding of kinase to standard ligand; conditions: KINOMEscan technology
Source text: (§1) These assays may be conducted by DiscoverX (formerly Ambit; San Diego, Calif.).

B-Raf (V600E) = B-Raf (V600E) (Homo sapiens (Human), UniProt P15056, V600E); assay: KINOMEscan binding of kinase to standard ligand; conditions: KINOMEscan technology
Source text: as §1

[4] = Stability of pharmaceutical formulations; type: physicochemical
Experimental: The samples were sonicated to achieve clear solutions having the following properties: Osmolality (mOsm/kg): 310 (Na), 314 (HCl); pH: 7.00 (Na), 7.05 (HCl). 0.5 mL of the stock solutions were diluted to 1 mL with 20% DMSO in water & injected for purity analysis by HPLC. The remaining stock solutions were then split into aliquots of 0.5 mL in HPLC vials, and stored at various conditions in duplicate. Samples were stored at 5 and 25° C., before being analysed by HPLC at 1, 2 and 4 weeks. Separate samples were stored at 40° C. and analysed at 4 weeks.

[5] = system: LPS-stimulated Lewis rats; assay: (vi) Endotoxin-induced uveitis in rats; type: in vivo, rat
Experimental: Male, Lewis rats (6-8 weeks old, Charles River UK Limited) are housed in cages of 3 at 19-21° C. with a 12 h light/dark cycle (07:00/19:00) and fed a standard diet of rodent chow and water ad libitum. Non-fasted rats are weighed, individually identified on the tail with a permanent marker, and receive a single intravitreal administration into the right vitreous humor (5 μL dose volume) of 100 ng/animal of LPS (Escherichia coli 0111:B4 prepared in PBS, Sigma Aldrich, UK) using a 32-gauge needle. Untreated rats are injected with PBS. Test compound or vehicle (4% polyoxyl 40 stearate, 4% mannitol in PBS ([…])) are administered by the topical route onto the right eye (10 μL) of animals 1 hour prior to LPS, at the time of LPS administration, and 1, 2 and 4 hours post LPS administration. Before administration, the solution to be administered is sonicated to ensure a clear solution. 6 hours after LPS dosing, animals are euthanized by overdose with pentobarbitone (via cardiac puncture). Immediately after euthanasia, 10 μL of aqueous humor is collected from the right eye of the rats by puncture of the anterior chamber using a 32 gauge needle under a surgical microscope. The aqueous humor is diluted in 20 μL of PBS and total cell counts are measured immediately using a Countess automated cell counter (Invitrogen). Following collection of the aqueous humour, the right eye of each animal is enucleated and dissected into front (anterior) and back (posterior) sections around the lens. Each section is weighed and homogenised in 500 μL of sterile phosphate buffered saline followed by 20 minutes centrifugation at 12000 rpm at 4° C. The resulting supernatant is divided into 3 aliquots and stored at −80° C. until subsequent cytokine analysis by R&D DuoSet ELISA.

[6] = Hydrolytic stability study; type: physicochemical; conditions: DMSO/water (3:1), 1 mg/mL
Experimental: Chemical stability of compounds of the invention was assessed in a mixture of DMSO and water (3:1) at a test compound concentration of 1 mg/mL.
General HPLC Procedure • Agilent, Waters X-Select C18, 2.5 μm, 4.6×30 mm column, 4 min method, 5-95% MeCN/water (0.1% formic acid). Flow rate 2.5 mL/min. Column Oven Temperature 40° C. Detection 254 nm.
Sample Preparation • A 1.0 mg sample of test compound was dissolved in 750 μL of DMSO. Water (250 μL) was added slowly, ensuring no precipitation occurred.
Recording Stability • A 50 μL aliquot of the test solution was removed and analysed in duplicate by 5 μL HPLC injections. The peak area for the test compound was recorded following manual integration of the corresponding UV trace. • The test solution was heated to 60° C., with stirring, and 50 μL aliquots removed for HPLC analysis at 5 and 24 h timepoints.

p38 MAPKα (MAPK14) = p38 MAPKα (MAPK14) (Homo sapiens (Human), UniProt Q16539); assay: p38 MAPKα enzyme inhibition (Method 2), Z-LYTE FRET; type: biochemical
Outline: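 Enzyme (200 ng/mL solution) was preincubated 2 h at RT with compound solutions of 1, 0.1, 0.01 or 0.001 μg/mL, and inhibition was read indirectly via MAPKAP-K2 activation/phosphorylation. After a 1 h RT reaction and 1 h protease development, phosphorylation was derived from the coumarin/fluorescein emission ratio.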

c-Src = c-Src (Homo sapiens (Human), UniProt P12931); assay: c-Src enzyme inhibition, Z-LYTE FRET; type: biochemical
Outline: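 Z-LYTE FRET peptide phosphorylation read as donor coumarin over acceptor fluorescein ratio after 1 hr protease development. Compounds (1–0.001 μg/mL) preincubated 2 hr at RT with enzyme; ATP solutions 60 μM for Syk, 800 μM for c-Src; kinase reaction 1 hr.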

Syk = Syk (Homo sapiens (Human), UniProt P43405); assay: Syk enzyme inhibition, Z-LYTE FRET; type: biochemical
Outline: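 Syk or c-Src enzyme (3000 or 2000 ng/mL solutions) was preincubated 2 h at RT with compound solutions at 1, 0.1, 0.01 or 0.001 µg/mL. Z-LYTE FRET peptide (8 µM solution) and ATP (800 µM solution for c-Src, 60 µM for Syk) were then added for 1 h, followed by protease development for 1 h. Phosphorylation was read as the coumarin/fluorescein emission ratio.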

Jurkat cells = assay: (r) Cell cytotoxicity assay; type: cell-based, human; conditions: 24 hours
Outline: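 Viability read by flow cytometry as the fraction of propidium iodide-negative cells (7.5 μg/mL PI, 15 min), relative to 1.0% DMSO control. Beforehand, 1×10^5 Jurkat cells in RPMI/10% FBS were treated 24 h at 37° C., 5% CO2 with test compound at final 20, 5 or 1 μg/mL.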

non-mutant kinases = assay: KinomeScan selectivity scores; type: binding; conditions: for number of individual kinase hits S(1): % Ctrl <1; for number of individual kinase hits S(10): % Ctrl <10; for number of individual kinase hits S(35): % Ctrl <35; for KinomeScan Selectivity Score S(10): non-mutant kinases with % Ctrl <10 / kinases tested; for KinomeScan Selectivity Score S(35): non-mutant kinases with % Ctrl <35 / kinases tested
Source text: as §1

[7] = sodium (Na) salt, 1 mg/mL in 10 mM pH 7.2 phosphate buffer, 4.5% mannitol, 3% polyoxyl 40 stearate
[8] = rats treated with intravitreal endotoxin LPS

B-Raf, sequence (P15056 whole entry): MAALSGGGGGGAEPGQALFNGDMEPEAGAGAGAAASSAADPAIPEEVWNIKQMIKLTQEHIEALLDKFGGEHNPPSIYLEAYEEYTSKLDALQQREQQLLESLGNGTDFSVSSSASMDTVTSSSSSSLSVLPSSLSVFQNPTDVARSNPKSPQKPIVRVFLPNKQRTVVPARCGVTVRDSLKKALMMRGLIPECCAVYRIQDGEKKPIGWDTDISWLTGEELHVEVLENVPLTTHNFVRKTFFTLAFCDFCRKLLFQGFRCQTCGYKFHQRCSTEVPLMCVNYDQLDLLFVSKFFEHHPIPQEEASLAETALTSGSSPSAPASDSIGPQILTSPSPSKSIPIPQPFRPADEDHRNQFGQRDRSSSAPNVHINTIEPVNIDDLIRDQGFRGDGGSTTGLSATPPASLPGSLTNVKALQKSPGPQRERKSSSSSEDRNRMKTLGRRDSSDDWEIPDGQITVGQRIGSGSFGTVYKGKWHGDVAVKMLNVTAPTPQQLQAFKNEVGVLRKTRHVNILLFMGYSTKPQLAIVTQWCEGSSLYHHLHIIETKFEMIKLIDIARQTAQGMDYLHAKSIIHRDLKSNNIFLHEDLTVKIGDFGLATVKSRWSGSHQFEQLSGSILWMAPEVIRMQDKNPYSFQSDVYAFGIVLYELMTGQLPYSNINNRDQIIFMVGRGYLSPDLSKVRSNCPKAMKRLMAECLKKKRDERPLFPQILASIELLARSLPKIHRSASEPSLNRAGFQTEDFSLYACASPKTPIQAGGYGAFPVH
B-Raf (V600E), sequence (P15056 whole entry V600E): as the sequence (P15056 whole entry) above, with V600E counted along it
c-Src, sequence (P12931 whole entry, looked up): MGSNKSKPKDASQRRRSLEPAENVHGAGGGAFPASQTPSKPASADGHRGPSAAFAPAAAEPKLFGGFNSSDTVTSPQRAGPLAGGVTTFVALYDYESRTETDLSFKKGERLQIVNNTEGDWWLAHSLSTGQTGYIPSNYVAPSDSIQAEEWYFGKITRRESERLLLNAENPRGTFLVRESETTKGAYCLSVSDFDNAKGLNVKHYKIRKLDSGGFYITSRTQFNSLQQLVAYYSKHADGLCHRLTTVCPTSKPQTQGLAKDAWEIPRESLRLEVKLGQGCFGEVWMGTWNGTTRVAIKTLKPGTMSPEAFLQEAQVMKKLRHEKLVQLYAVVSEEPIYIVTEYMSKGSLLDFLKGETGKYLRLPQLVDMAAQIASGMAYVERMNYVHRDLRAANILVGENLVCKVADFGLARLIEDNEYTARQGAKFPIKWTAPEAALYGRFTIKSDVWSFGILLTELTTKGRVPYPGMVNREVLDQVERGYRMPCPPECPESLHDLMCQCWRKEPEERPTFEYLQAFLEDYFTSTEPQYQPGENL
p38 MAPKα (MAPK14), sequence (Q16539 whole entry): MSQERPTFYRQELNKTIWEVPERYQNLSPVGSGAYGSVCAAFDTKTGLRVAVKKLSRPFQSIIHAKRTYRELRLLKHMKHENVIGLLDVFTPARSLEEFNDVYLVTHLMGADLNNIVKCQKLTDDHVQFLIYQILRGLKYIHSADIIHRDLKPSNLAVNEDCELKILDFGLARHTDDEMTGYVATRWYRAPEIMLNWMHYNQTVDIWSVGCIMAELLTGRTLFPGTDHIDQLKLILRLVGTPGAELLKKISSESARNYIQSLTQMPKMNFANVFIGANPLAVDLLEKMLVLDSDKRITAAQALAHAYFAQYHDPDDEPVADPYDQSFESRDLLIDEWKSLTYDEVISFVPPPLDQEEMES

COc1cc(Nc2cc(Oc3ccc(NC(=O)Nc4cc(C(C)(C)C)cc(NS(C)(=O)=O)c4OC)c4ccccc34)ccn2)ccc1C(=O)O [Example 1, 4-((4-((4-(3-(5-(tert-Butyl)-2-methoxy-3-(methylsulfonamido)phenyl)ureido)naphthalen-1-yl)oxy)pyridin-2-yl)amino)-2-methoxybenzoic acid]
inhibition at 5 µg/mL (mitosis in PBMCs): 2.4%
mutagenic effects (revertant numbers) [1]: absence of any mutagenic effects
toxicity of the test item to the bacteria (mean colony count) [2]: reduction in the mean colony count
mutagenic effects (revertant numbers) [2]: absence of any mutagenic effects
local tolerability of the formulations, Phase 2 ([3]; 3 treatment days): acceptable without any aggravation
local tolerability of the formulations, Phase 1 ([3]; after a single dosing day): acceptable
ocular reactions compared with vehicle controls, Phase 1 ([3]; one treatment day, 0.1 and 1.0 mg/mL, four daily instillations): no differences in the frequency, severity and incidence
main ocular reactions, Phase 2 ([3]; three consecutive treatment days, 0.1 and 1.0 mg/mL, four daily instillations): limited to conjunctival redness (grade 1)
effect on the binding of B-Raf to its standard ligand (B-Raf): did not have any significant effect
effect on the binding of B-Raf (V600E) to its standard ligand (B-Raf (V600E)): did not have any significant effect
stability in solution ([4]; 1 mg/mL formulation, 5° C., up to 4 weeks): stable
pH of solution ([4]; hydrochloride (HCl) salt, 1 mg/mL in 10 mM pH 7.2 phosphate buffer, 4.5% mannitol, 3% polyoxyl 40 stearate): 7.05
Osmolality [4, 7]: 310 mOsm/kg
pH of solution [4, 7]: 7.00
IL-1β (pg/mL) Anterior tissue ([5]; LPS-stimulated rats, topical 0.01 mg/mL, mean ± SEM): 980.0 ± 110.8 pg/mL
cellular infiltration (cell counts) in the eyes [5, 8]: significantly and dose-dependently reduced
cytokine IL-1β levels in anterior and posterior segments of the eyes [5, 8]: significantly and dose-dependently reduced

COc1cc(Nc2cc(Oc3ccc(NC(=O)Nc4cc(C(C)(C)C)cc(NS(C)(=O)=O)c4OC)c4ccccc34)ccn2)ccc1P(C)(=O)O [Example 44, (4-((4-((4-(3-(5-(tert-Butyl)-2-methoxy-3-(methylsulfonamido)phenyl)ureido)naphthalen-1-yl)oxy)pyridin-2-yl)amino)-2-methoxyphenyl)(methyl)phosphinic acid]
% Parent Remaining ([6]; 0 min): 100%
% Parent Remaining ([6]; 60° C., 1439 min): 98%
IC50 (p38 MAPKα (MAPK14)): 11 nM
IC50 (c-Src): 20 nM
toxicity of the test item to the bacteria (mean colony count) ([1]; 5000 μg/plate in WP2 uvrA, absence of S-9 mix): reduction in the mean colony count
mutagenic effects (revertant numbers) [1]: absence of any mutagenic effects
IC50 (Syk): 17 nM
toxicity of the test item to the bacteria (mean colony count) [2]: reduction in the mean colony count
mutagenic effects (revertant numbers) [2]: absence of any mutagenic effects
effect on the binding of B-Raf to its standard ligand (B-Raf): did not have any significant effect
effect on the binding of B-Raf (V600E) to its standard ligand (B-Raf (V600E)): did not have any significant effect
% Viability at 1 μg/mL (Jurkat cells): 93.3%
% Viability at 5 μg/mL (Jurkat cells): 90.1%
% Viability at 20 μg/mL (Jurkat cells): 92.2%

COc1cc(Nc2cc(Oc3ccc(NC(=O)Nc4cc(C(C)(C)C)cc(NS(C)(=O)=O)c4OC)c4ccccc34)ccn2)cc(OC)c1C(=O)NCCOCCOCCOP(=O)(O)O [Example 47, 2-(2-(2-(4-((4-((4-(3-(5-(tert-butyl)-2-methoxy-3-(methylsulfonamido)phenyl)ureido)-naphthalen-1-yl)oxy)pyridin-2-yl)amino)-2,6-dimethoxybenzamido)ethoxy)ethoxy)ethyl dihydrogen phosphate]
% Parent Remaining ([6]; 0 min): 100%
% Parent Remaining ([6]; 60° C., 317 min): 104%
% Parent Remaining ([6]; 60° C., 1450 min): 89%
IC50 (p38 MAPKα (MAPK14)): 4 nM
IC50 (c-Src): 15 nM
number of individual kinase hits S(1) (non-mutant kinases; 50 nM): 0
number of individual kinase hits S(10) (non-mutant kinases; 50 nM): 17
number of individual kinase hits S(35) (non-mutant kinases; 50 nM): 55
KinomeScan Selectivity Score S(10) (non-mutant kinases; 50 nM): 0.042
KinomeScan Selectivity Score S(35) (non-mutant kinases; 50 nM): 0.136
number of individual kinase hits S(1) (non-mutant kinases; 500 nM): 30
number of individual kinase hits S(10) (non-mutant kinases; 500 nM): 90
number of individual kinase hits S(35) (non-mutant kinases; 500 nM): 128
KinomeScan Selectivity Score S(1) (non-mutant kinases; 500 nM, non-mutant kinases with % Ctrl <1 / kinases tested): 0.074
KinomeScan Selectivity Score S(10) (non-mutant kinases; 500 nM): 0.223
KinomeScan Selectivity Score S(35) (non-mutant kinases; 500 nM): 0.318
IC50 (Syk): 8 nM
effect on the binding of B-Raf to its standard ligand (B-Raf): did not have any significant effect
effect on the binding of B-Raf (V600E) to its standard ligand (B-Raf (V600E)): did not have any significant effect
% Viability at 1 μg/mL (Jurkat cells): 91.2%
% Viability at 5 μg/mL (Jurkat cells): 96.0%
% Viability at 20 μg/mL (Jurkat cells): 97.8%
